# Columns and labels:
# [1] = test system: stomata (stomatal aperture); experiment: Stomatal aperture of intact leaves immersed in artificial apoplastic sap, measured on epidermal imprints; assay type: cell-based, tomato (Solanum lycopersicum cv. MP-1); conditions: 3 h
# Protocol: Stomatal aperture and density are determined using the rapid imprinting technique described by […] and Sack (2002). This approach allows to reliably score hundreds of stomata from each experiment, each of which is sampled at the same time. Light-bodied vinylpolysiloxane dental resin (Heraeus-Kulzer, Hanau, Germany) is attached to the abaxial leaf side and then removed as soon as it dries (1 min). The resin epidermal imprints are than covered with nail polish, which removed once it had dried out and serves as a mirror image of the resin imprint. The nail-polish imprints are put on glass cover slips and photographed under bright-field microscope. Stomata images are later analyzed to determine aperture size using the ImageJ software (World Wide Web (dot) rsb (dot) info (dot) nih (dot) gov/ij/) fit-ellipse tool or any other software that can process and analyze images. A microscopic ruler is used for the size calibration. Additional information can be obtained from the software such as stomata width, length, area, perimeter etc. To assess stomatal responses, leaflets are cut and immediately immerse in artificial xylem sap solution (AXS) (Wilkinson and Davies, 1997) containing 100 mM sucrose (Duchefa Biochemie) with or without 20 mM N-acetyl glucosamine (NAG, Sigma-Aldrich), 100 mM or 200 mM glucose (Duchefa Biochemie), 100 mM or 200 mM fructose (Sigma-Aldrich), 100 mM 2-deoxyglucose (Sigma-Aldrich), 10 mM or 100 mM mannose (Sigma-Aldrich), 100 mM sorbitol (Sigma-Aldrich) or 100 mM or 200 mM mannitol (Duchefa Biochemie). The sorbitol and mannitol treatments serve as non-metabolic osmotic controls. Imprints are taken 3 h after immersion and stomatal aperture is analyzed. Different plant species can be used as well as, AXS solutions, treatment solutions and different timings to our decision.
# guard cells = experiment: Nitric oxide production in guard cells of epidermal peels (DAF-2DA fluorescence); assay type: cell-based, tomato; conditions: for NO production and stomatal closure in ABA-deficient mutant: Sitiens epidermal peels, 100 mM Suc or 100 μM ABA; for effect on NO levels in guard cells: 100 mM sorbitol or 20 mM NAG with 100 mM Suc
# Protocol: Detection of nitric oxide (NO) levels in stomata is performed as follows: Epidermal peels are prepared and incubated in MES buffer [25 mM MES-KOH, pH=6.15 and 10 mM KCl (MES, 2-(N-morpholino)-ethane sulfonic acid; Sigma-Aldrich] with or without 20 mM NAG, for 2.5 h under steady light, and then loaded with 60 μM NO indicator dye, DAF-2DA (4, 5-diaminofluorescein diacetate; Sigma-Aldrich), diluted in MES buffer with or without 20 mM N-acetyl glucosamine (NAG, Sigma-Aldrich) and left for an additional 50 min. Then, the peels are washed with MES 3 times and re-incubated for 30 min in the buffer (control, set as 100% fluorescence) or in 100 mM sorbitol, 100 mM sucrose and 20 mM NAG. The peels are then photographed under a microscope (see Materials and Methods, “Confocal microscopy imaging”). Three to four biological repeats containing 20-30 stomata each are included in each experiment and each experiment is repeated several times. Images are analyzed using the ImageJ software histogram tool to evaluate fluorescence intensity and the fit-ellipse tool to determine stomatal aperture. It is possible to use epidermal strips from different species, use different treatments solutions and different timings, all to our decision. Images are acquired using the OLYMPUS IX 81 (Japan) inverted laser scanning confocal microscope (FLUOVIEW 500) equipped with a 488-nm argon ion laser and a 60X1.0 NA PlanApo water immersion objective. Nitric oxide- DAF-2DA (4, 5-diaminofluorescein diacetate; Sigma-Aldrich) fluorescence is excited by 488-nm light and the emission is collected using a BA 505-525 filter. GFP is excited by 488-nm light and the emission is collected using a BA 505-525 filter. A BA 660 IF emission filter is used to observe chlorophyll autofluorescence. Confocal optical sections are obtained at 0.5-μm increments. The images are color-coded green for GFP and magenta for chlorophyll autofluorescence.
structure (smiles),measurement,setting,value
"O=CC[C@@H](O)[C@H](O)[C@H](O)CO [2-dG, 2-deoxyglucose]",effect on stomatal aperture,"[1]; WT leaves, vs mannitol osmotic control",reduced stomatal aperture
"CC1=CC(=O)CC(C)(C)[C@@]1(O)/C=C/C(C)=C\C(=O)O [ABA, abscisic acid]",NO production and stomatal closure in ABA-deficient mutant,guard cells; 30 min,did trigger the production of NO
"CC(=O)N[C@H]1C(O)O[C@H](CO)[C@@H](O)[C@@H]1O (stereo partly drawn) [NAG, N-acetyl glucosamine]",effect on Suc-induced stomatal closure of AtHXK1-expressing plants,"[1]; HK4 leaves, 100 mM Suc with 20 mM NAG",abolished the closing effect of Suc
same,effect on Suc-induced stomatal closure,"[1]; WT leaves, 100 mM Suc with 20 mM NAG",almost completely abolished the effect of Suc and prevented stomatal closure
same,time to resumption of NO production after washing out NAG,guard cells; NAG washed out with 100 mM Suc,less than 30 min
same,effect on NO levels in guard cells,"guard cells; WT epidermal peels, 30 min",prevented the production of NO
"OC[C@H]1O[C@@](CO)(O[C@H]2O[C@H](CO)[C@@H](O)[C@H](O)[C@H]2O)[C@@H](O)[C@@H]1O [Suc, sucrose]",effect on stomatal aperture of AtHXK1-expressing plants,"[1]; HK4 leaves, 100 mM Suc",caused the stomata to close even further
same,decrease of stomatal aperture size relative to sorbitol,"[1]; WT tomato leaflets, 100 mM Suc vs 100 mM sorbitol",29%
same,effect on guard-cell fluorescence of AtHXK1-expressing line,"guard cells; HK4 epidermal peels, Suc added",even more intense fluorescence
same,NO production and stomatal closure in ABA-deficient mutant,guard cells; 30 min,did not result in any increase in fluorescence or stomatal closure
same,increase in guard-cell fluorescence (NO levels),"guard cells; WT epidermal peels, 100 mM, 30 min",3.5 fold
OC[C@@H](O)[C@@H](O)[C@H](O)[C@@H](O)CO [sorbitol],effect on NO levels in guard cells,"guard cells; WT epidermal peels, 30 min",had no effect on NO levels

# — patent US10975385B2, “Methods of modulating stomata conductance and plant expression constructs for executing same” (The State of Israel, Ministry of Agriculture & Rural …, priority 2011, dated 2021)
